# Measurements as given in ChEMBL document CHEMBL5360631, “Creation of a Peptide Antagonist of the GFRAL-RET Receptor Complex for the Treatment of GDF15-Induced Malaise” (J Med Chem, 2023).
# Calls of active or inactive are those of the source. The calls are words filed in the database; no cut-off is given here. Numbered stars: 1 amine (or outer) side, 2 acyl side, 3 side chain; on linkers, the order of the positions; unused ones are H or OH. Square brackets hold non-standard residues; d marks the D form. Side chains are listed from the residue outwards. Peptide text beside a SMILES is read from it. * marks the point of attachment. X4 = CN1/C(=C/C=C/C=C/C2=[N+](CCCCCC(=O)*)c3ccc(S(=O)(=O)[O-])cc3C2(C)C)C(C)(C)c2cc(S(=O)(=O)O)ccc21; X3 = C[C@@H](O)[C@@H](C(=O)[*:2])N(CCCn1nnc2c1-c1ccccc1CN([*:3])c1ccccc1-2)[*:1]; Biotin = O=C1N[C@H]2[C@H](CS[C@H]2CCCCC(=O)*)N1; GABA = NCCCC(=O)O
# How the values were obtained:
# [1] = biological target: T1, GDNF family receptor alpha-like (Homo sapiens, UniProt Q6UXV0); assay: Binding affinity to C-terminal polyhis-tagged recombinant human GFRAL (19 to 351 residues) expressed in HEK293 cells assessed as dissociation constant with increasing enzyme concentration by SPR analysis
# T1 sequence (Q6UXV0 whole entry): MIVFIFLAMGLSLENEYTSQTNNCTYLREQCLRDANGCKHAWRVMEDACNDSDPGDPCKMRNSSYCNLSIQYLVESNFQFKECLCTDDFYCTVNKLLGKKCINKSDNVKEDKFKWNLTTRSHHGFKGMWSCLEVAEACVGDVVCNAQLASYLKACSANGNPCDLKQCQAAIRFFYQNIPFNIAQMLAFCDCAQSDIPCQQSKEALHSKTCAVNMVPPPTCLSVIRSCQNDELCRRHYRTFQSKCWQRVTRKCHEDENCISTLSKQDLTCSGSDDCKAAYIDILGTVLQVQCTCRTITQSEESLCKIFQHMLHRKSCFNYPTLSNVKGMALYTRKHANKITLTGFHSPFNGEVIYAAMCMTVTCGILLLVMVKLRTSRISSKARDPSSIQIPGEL
# [2] = biological target: T1, GDNF family receptor alpha-like; assay: Binding affinity to C-terminal polyhis-tagged recombinant human GFRAL (19 to 351 residues) expressed in HEK293 cells assessed as dissociation constant by SPR analysis
# [3] = Toxicity in Sprague-Dawley rat assessed as food intake at 300 to 3000 pmol, ICV measured for 24 hrs; settings: in vivo, icv_or_intrathecal, dose 300-3000 pmol
# [4] = Toxicity in Sprague-Dawley rat assessed as kaolin intake at 300 to 3000 pmol, ICV measured for 24 hrs; settings: in vivo, icv_or_intrathecal, dose 300-3000 pmol
# Rattus norvegicus [5] = assay: Effect on pica behaviour in Sprague-Dawley rat assessed as reduction in GDF-15-induced kaolin intake pretreated intracerebroventricularly followed by GDF-15 treatment measured for 24 hrs; format: functional; settings: dose 300-3000 pmol, route icv
# Rattus norvegicus [6] = assay: Effect on GDF-15-induced anorexia in Sprague-Dawley rat at 300 to 3000 pmol pre-treated intracerebroventricularly followed by GDF-15 treatment measured for 24 hrs; format: functional; settings: dose 300-3000 pmol, route icv
# [7] = Toxicity in Sprague-Dawley rat assessed as food intake at 30 to 100 nmol/kg, IP measured for 24 hrs; settings: in vivo, dose 30-100 nmol/kg
# [8] = Toxicity in Sprague-Dawley rat assessed as kaolin intake at 30 to 100 nmol/kg, IP measured for 24 hrs; settings: in vivo, dose 30-100 nmol/kg
# Rattus norvegicus [9] = assay: Effect on GDF-15-induced anorexia in Sprague-Dawley rat at 30 to 100 nmol/kg pretreated intraperitoneally followed by GDF-15 treatment measured for 24 hrs; format: functional; settings: dose 30-100 nmol/kg, route ip
# Rattus norvegicus [10] = assay: Effect on pica behaviour in Sprague-Dawley rat assessed as reduction in GDF-15-induced kaolin intake at 100 nmol/kg pretreated intraperitoneally followed by GDF-15 treatment measured for 24 hrs; format: functional; settings: route ip
# [11] = Toxicity in Sprague-Dawley rat assessed as kaolin intake at 100 nmol/kg, IP measured for 24 hrs; settings: in vivo
# [12] = Toxicity in Sprague-Dawley rat assessed as food intake at 100 nmol/kg, IP measured for 24 hrs; settings: in vivo
# Rattus norvegicus [13] = assay: Effect on pica behaviour in Sprague-Dawley rat assessed as reduction in cisplatin-induced kaolin intake at 100 nmol/kg, IP pretreated for 15 mins followed by cisplatin treatment measured for 6 hrs; format: functional; settings: time 6.25 hrs
# [14] = Toxicity in Sprague-Dawley rat assessed as drug tolerance at 100 nmol/kg, IP measured for 24 hrs; settings: in vivo
# [15] = Toxicity in Sprague-Dawley rat assessed as drug tolerance at 100 nmol/kg, IP measured for 24 hrs in presence of Ondansetron; settings: in vivo
# Rattus norvegicus [16] = assay: Effect on pica behaviour in Sprague-Dawley rat assessed as food intake at 100 nmol/kg, IP measured for 24 hrs; format: functional
# Rattus norvegicus [17] = assay: Effect on pica behaviour in Sprague-Dawley rat assessed as kaolin intake at 100 nmol/kg, IP measured for 24 hrs; format: functional
# Rattus norvegicus [18] = assay: Effect on pica behaviour in Sprague-Dawley rat assessed as food intake at 100 nmol/kg, IP measured for 24 hrs in presence of Ondansetron; format: functional
# Rattus norvegicus [19] = assay: Effect on pica behaviour in Sprague-Dawley rat assessed as kaolin intake at 100 nmol/kg, IP measured for 24 hrs in presence of Ondansetron; format: functional
# Rattus norvegicus [20] = assay: Effect on pica behaviour in Sprague-Dawley rat assessed as reduction in cisplatin-induced kaolin intake at 100 nmol/kg, IP bid measured for 24 hrs; format: functional
# [21] = Toxicity in cisplatin-induced nausea and vomiting Sprague-Dawley rat model assessed as additive effect at 100 nmol/kg, IP bid measured for 24 hrs in presence of Ondansetron; settings: in vivo
# Rattus norvegicus [22] = assay: Effect on pica behaviour in Sprague-Dawley rat assessed as reduction in cisplatin-induced kaolin intake at 2 mg/kg, IP measured for 24 hrs; format: functional, organism-based
# Rattus norvegicus [23] = assay: Effect on pica behaviour in Sprague-Dawley rat assessed as reduction in cisplatin-induced anorexia at 100 nmol/kg, IP bid measured for 24 hrs in presence of Ondansetron; format: functional
# [24] = biological target: T1, GDNF family receptor alpha-like; assay: Binding affinity to C-terminal polyhis-tagged recombinant human GFRAL (19 to 351 residues) expressed in HEK293 cells assessed as dissociation constant by flow cytometric analysis; format: cell-based
compound,measurement,setting,value
CC[C@H](C)[C@H](NC(=O)[C@H](CC(C)C)NC(=O)[C@H](CCC(=O)O)NC(=O)[C@H](CCC(=O)O)NC(=O)[C@H](CCCCN)NC(=O)[C@@H](NC(=O)CCCC[C@@H]1SC[C@@H]2NC(=O)N[C@@H]21)[C@@H](C)O)C(=O)N[C@@H](Cc1c[nH]cn1)C(=O)N[C@@H](C)C(=O)N[C@@H](Cc1c[nH]cn1)C(=O)N[C@@H](C)C(=O)N[C@@H](CC(=O)O)C(=O)N1CCC[C@H]1C(=O)N[C@@H](CCSC)C(=O)N[C@H](C(=O)N[C@@H](CC(C)C)C(=O)N[C@H](C(=O)N[C@@H](CCC(N)=O)C(=O)N[C@@H](CCCCN)C(=O)N[C@H](C(=O)N[C@@H](CC(=O)O)C(=O)N[C@H](C(=O)NCC(=O)N[C@H](C(=O)N[C@@H](CO)C(=O)N[C@@H](CC(C)C)C(=O)N[C@@H](CCC(N)=O)C(=O)N[C@H](C(=O)N[C@@H](Cc1ccc(O)cc1)C(=O)N[C@@H](CC(=O)O)C(=O)O)[C@@H](C)O)C(C)C)[C@@H](C)O)[C@@H](C)O)[C@@H](C)CC)C(C)C (Biotin-TKEELIHAHADPMVLIQKTDTGVSLQTYD-OH),Kd,[1],74.1 nM
CC[C@H](C)[C@H](NC(=O)[C@H](CC(C)C)NC(=O)[C@H](CCC(=O)O)NC(=O)[C@H](CCC(=O)O)NC(=O)[C@H](CCCCN)NC(=O)[C@@H](N)[C@@H](C)O)C(=O)N[C@@H](Cc1c[nH]cn1)C(=O)N[C@@H](C)C(=O)N[C@@H](Cc1c[nH]cn1)C(=O)N[C@@H](C)C(=O)N[C@@H](CC(=O)O)C(=O)N1CCC[C@H]1C(=O)N[C@@H](CCSC)C(=O)N[C@H](C(=O)N[C@@H](CC(C)C)C(=O)N[C@H](C(=O)N[C@@H](CCC(N)=O)C(=O)N[C@@H](CCCCN)C(=O)N[C@H](C(=O)N[C@@H](CC(=O)O)C(=O)N[C@H](C(=O)NCC(=O)N[C@H](C(=O)N[C@@H](CO)C(=O)N[C@@H](CC(C)C)C(=O)N[C@@H](CCC(N)=O)C(=O)N[C@H](C(=O)N[C@@H](Cc1ccc(O)cc1)C(=O)N[C@@H](CC(=O)O)C(=O)O)[C@@H](C)O)C(C)C)[C@@H](C)O)[C@@H](C)O)[C@@H](C)CC)C(C)C (H-TKEELIHAHADPMVLIQKTDTGVSLQTYD-OH),Kd,[2],179000 nM
same,Activity,[3],Non-Toxic
same,Activity,[4],Non-Toxic
same,Activity,Rattus norvegicus [5],Active
same,Activity,Rattus norvegicus [6],inactive
same,Activity,[7],Non-Toxic
same,Activity,[8],Non-Toxic
same,Activity,Rattus norvegicus [9],inactive
same,Activity,Rattus norvegicus [10],Active
same,Activity,[11],Non-Toxic
same,Activity,[12],Non-Toxic
same,Activity,Rattus norvegicus [13],Active
same,Activity,[14],Non-Toxic
same,Activity,[15],Non-Toxic
same,Activity,Rattus norvegicus [16],inactive
same,Activity,Rattus norvegicus [17],inactive
same,Activity,Rattus norvegicus [18],inactive
same,Activity,Rattus norvegicus [19],inactive
same,Activity,Rattus norvegicus [20],Active
same,Activity,[21],Non-Toxic
same,Activity,Rattus norvegicus [22],Active
same,Activity,Rattus norvegicus [23],Active
CC[C@H](C)[C@H](NC(=O)[C@H](CC(C)C)NC(=O)[C@H](CCC(=O)O)NC(=O)[C@H](CCC(=O)O)NC(=O)[C@H](CCCCN)NC(=O)[C@@H](NCCCn1nnc2c1-c1ccccc1CN(C(=O)CCCNC(=O)CCCCC[N+]1=C(/C=C/C=C/C=C3/N(C)c4ccc(S(=O)(=O)O)cc4C3(C)C)C(C)(C)c3cc(S(=O)(=O)[O-])ccc31)c1ccccc1-2)[C@@H](C)O)C(=O)N[C@@H](Cc1c[nH]cn1)C(=O)N[C@@H](C)C(=O)N[C@@H](Cc1c[nH]cn1)C(=O)N[C@@H](C)C(=O)N[C@@H](CC(=O)O)C(=O)N1CCC[C@H]1C(=O)N[C@@H](CCSC)C(=O)N[C@H](C(=O)N[C@@H](CC(C)C)C(=O)N[C@H](C(=O)N[C@@H](CCC(N)=O)C(=O)N[C@@H](CCCCN)C(=O)N[C@H](C(=O)N[C@@H](CC(=O)O)C(=O)N[C@H](C(=O)NCC(=O)N[C@H](C(=O)N[C@@H](CO)C(=O)N[C@@H](CC(C)C)C(=O)N[C@@H](CCC(N)=O)C(=O)N[C@H](C(=O)N[C@@H](Cc1ccc(O)cc1)C(=O)N[C@@H](CC(=O)O)C(=O)O)[C@@H](C)O)C(C)C)[C@@H](C)O)[C@@H](C)O)[C@@H](C)CC)C(C)C (H-[X3]([GABA-X4])KEELIHAHADPMVLIQKTDTGVSLQTYD-OH),Kd,[24],8.98 nM
